The source of these data is patent US9790229B2, “Bruton's tyrosine kinase inhibitors” (priority 2009, dated 2017).

A value given as a limit tells only on which side of the number the result lay.

The target in one experiment is BTK (Homo sapiens (Human), UniProt Q06187). Put plainly: In vitro BTK kinase assay: BTK-POLYGAT-LS ASSAY.
Chain of BTK (Q06187 whole entry): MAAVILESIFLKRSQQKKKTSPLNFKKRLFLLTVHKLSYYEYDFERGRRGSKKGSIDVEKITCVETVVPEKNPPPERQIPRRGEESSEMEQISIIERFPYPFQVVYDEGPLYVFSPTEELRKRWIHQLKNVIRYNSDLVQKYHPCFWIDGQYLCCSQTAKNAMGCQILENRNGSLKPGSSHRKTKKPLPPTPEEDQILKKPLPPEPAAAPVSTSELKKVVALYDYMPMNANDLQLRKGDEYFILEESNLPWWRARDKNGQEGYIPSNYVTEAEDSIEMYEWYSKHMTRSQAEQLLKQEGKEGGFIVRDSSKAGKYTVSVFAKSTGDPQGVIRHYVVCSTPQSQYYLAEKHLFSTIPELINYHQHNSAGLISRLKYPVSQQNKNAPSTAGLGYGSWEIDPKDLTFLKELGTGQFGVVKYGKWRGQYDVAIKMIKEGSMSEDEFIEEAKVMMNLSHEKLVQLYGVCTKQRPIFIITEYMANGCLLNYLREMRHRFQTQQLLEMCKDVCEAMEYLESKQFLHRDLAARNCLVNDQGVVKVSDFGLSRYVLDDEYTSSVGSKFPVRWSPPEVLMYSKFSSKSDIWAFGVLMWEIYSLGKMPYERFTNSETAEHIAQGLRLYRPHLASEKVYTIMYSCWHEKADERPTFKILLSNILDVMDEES
Settings: not given
Regarding `CCC(CC)CNC(=O)Nc1cccc(C2CCCN(c3ncnc4[nH]ccc34)C2)c1` (stereo not drawn) [compound 180], the IC50 (as a rule, the concentration that inhibits the measured activity by half) is 100 to 999 nM.

As to `CO[C@@H]1CCN(c2ccccc2NC(=O)Nc2cccc(C3CCCN(c4ncnc5[nH]ccc45)C3)c2)C1` (stereo partly drawn) [compound 176], the IC50 was 100 to 999 nM.

Take `O=C(Nc1cccc(C2CCCN(c3ncnc4[nH]ccc34)C2)c1)[C@H](O)c1ccccc1` (stereo partly drawn) [Cmpd 19, (2R)—N-(3-(1-(7H-pyrrolo[2,3-d]pyrimidin-4-yl)piperidin-3-yl)phenyl)-2-hydroxy-2-phenylacetamide]: the IC50 lay within 1000 to 10000 nM.

For `CC(C)(C)CNC(=O)Nc1cccc(C2CCCN(c3ncnc4[nH]ccc34)C2)c1` (stereo not drawn) [compound 196], the IC50 fell in the range of 1000 to 10000 nM.

For the compound `O=C1C(Nc2ccccc2)CCN1[C@@H]1CCCN(c2ncnc3[nH]ccc23)C1` (stereo partly drawn) [compound 270, 1-((R)-1-(7H-pyrrolo[2,3-d]pyrimidin-4-yl)piperidin-3-yl)-3-(phenylamino)pyrrolidin-2-one], the IC50 fell in the range of 100 to 999 nM.

For `CC(C)(C)c1ccccc1NC(=O)Nc1cccc([C@@H]2CCCN(c3ncnc4[nH]ccc34)C2)c1` [compound 189], the half-maximal inhibitory concentration (IC50) lay in the range of 1000 to 10000 nM.

Turning to `O=C1C(Nc2ccccc2)CCCN1[C@@H]1CCCN(c2ncnc3[nH]ccc23)C1` (stereo partly drawn) [compound 271, (3′R)-3-(phenylamino)-1′-(7H-pyrrolo[2,3-d]pyrimidin-4-yl)-1,3′-bipiperidin-2-one], the IC50 is 100 to 999 nM.

The experiment is the same for the next values; noted with them: read-out: IC50 (10 uM ATP).
`Nc1ncnc(N2CCC[C@@H](N3CCC[C@H](Nc4cc(Cl)cc(C(F)(F)F)c4)C3=O)C2)c1F` [compound 312, (3S,3′R)-1′-(6-Amino-5-fluoropyrimidin-4-yl)-3-(3-chloro-5-(trifluoromethyl)phenylamino)-1,3′-bipiperidin-2-one]: the IC50 is below 100 nM.

The same experiment, now with this note: read-out: IC50 (10 uM ATP); 10 uM ATP; in vitro Btk kinase assay, Example 41.
As to `Nc1ncnc(N2CC[C@H](C(F)(F)F)[C@@H](N3CC[C@@H](Nc4cc(Cl)cc(Cl)c4)C3=O)C2)c1F` [compound 353], the half-maximal inhibitory concentration (IC50) is below 100 nM.

For `O=C(Nc1cc(C2CCCN(c3ncnc4[nH]ccc34)C2)cc(C(F)(F)F)c1)c1ccccc1` (stereo not drawn) [Cmpd 84, N-(3-(1-(7H-pyrrolo[2,3-d]pyrimidin-4-yl)piperidin-3-yl)-5-(trifluoromethyl)phenyl)benzamide], the IC50 is above 10000 nM.

Regarding `CS(=O)(=O)N1CCN(c2ncnc3[nH]ccc23)CC1c1cccc(NC(=O)Nc2ccccc2)c1` (stereo not drawn) [compound 128, 1-(3-(1-(methylsulfonyl)-4-(7H-pyrrolo[2,3-d]pyrimidin-4-yl)piperazin-2-yl)phenyl)-3-phenylurea], the IC50 was above 10000 nM.

Consider `CC(C)c1cccc(C(C)C)c1NC(=O)Nc1cccc(C2CCCN(c3ncnc4[nH]ccc34)C2)c1` (stereo not drawn) [compound 154], for which the IC50 was below 100 nM.

As to `Nc1cc(N2CCC[C@@H](N3CCCC(Nc4cc(F)cc(Cl)c4)C3=O)C2)ncn1` (stereo partly drawn) [compound 361], the IC50 was below 100 nM.

`Nc1ncnc(N2CC[C@H](O)[C@@H](N3CCC[C@@H](Nc4cc(Cl)cc(Cl)c4)C3=O)C2)c1F` [compound 326, trans (3R)-1′-(6-Amino-5-fluoropyrimidin-4-yl)-3-(3,5-dichlorophenylamino)-4′-hydroxy-1,3′-bipiperidin-2-one]: the IC50 was below 100 nM.

For `O=C(Nc1ccccc1)Nc1cc(C2CCCN(c3ncnc4[nH]ccc34)C2)ccc1OC(F)(F)F` (stereo not drawn) [compound 267], the IC50 is above 10000 nM.

Take `CO[C@H]1CCN(c2ccccc2NC(=O)Nc2cccc(C3CCCN(c4ncnc5[nH]ccc45)C3)c2)C1` (stereo partly drawn) [compound 157]: the concentration for half-maximal inhibition (IC50) was below 100 nM.

`O=C(Nc1cccc(C2CCCN(c3ncnc4[nH]ccc34)C2)c1)c1ccccc1Cl` (stereo not drawn) [Cmpd 5, N-(3-(1-(7H-pyrrolo[2,3-d]pyrimidin-4-yl)piperidin-3-yl)phenyl)-2-chlorobenzamide]: the IC50 is above 10000 nM.

Regarding `C[C@H]1CCN(c2ncnc(N)c2F)C[C@@H]1N1CCCC(Nc2cccc(Cl)c2)C1=O` (stereo partly drawn) [compound 282, trans-1′-(6-Amino-5-fluoropyrimidin-4-yl)-3-(3-chlorophenylamino)-4′-methyl-1,3′-bipiperidin-2-one], the IC50 is below 100 nM.
